Reference: the supplement of paper PMC10307832

What was measured:
Experiment in all cases: relative viability (nuclei count vs DMSO), 5 days (fraction); higher = more cells survive
[1] = compound: C1COCCN1C2=CC(=O)C3=C(O2)C(=CC=C3)C4=CC=CC5=C4SC6=CC=CC=C56
How it was run: (§1)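 Lung cancer cell lines in 1536-well plates were exposed by pinning to five library-drug doses (not always all listed) √10 apart, following an overnight hold at 37 °C. MetaXpress counted Hoechst-stained nuclei from 4× images taken after 5 days without medium change. Viability is the median ratio of treated-well to vehicle-well nuclei across plates. Plates required control CV below 25% and at least one doubling.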

[2] = compound: COc1nc(C)cnc1NS(=O)(=O)c1cccnc1-c1ccc(-c2nnco2)cc1 [Zibotentan]
How it was run: as §1

[3] = compound: COCC1(CO)C(=O)C2CCN1CC2 [PRIMA-1MET]
How it was run: as §1

[4] = compound: CCN(CC)CCCCNc1ncc2cc(-c3cc(OC)cc(OC)c3)c(NC(=O)NC(C)(C)C)nc2n1
How it was run: as §1

[5] = compound: O=c1cc(-c2cccc3c2Sc2ccccc2S3)oc(N2CCOCC2)c1
How it was run: as §1

Row | Cell Line | relative viability ([1]; 0.01 µM) | relative viability ([1]; 0.03162 µM) | relative viability ([1]; 0.1 µM) | relative viability ([1]; 0.3162 µM) | relative viability ([1]; 1 µM) | relative viability ([2]; 0.08 µM) | relative viability ([2]; 0.253 µM) | relative viability ([2]; 0.8 µM) | relative viability ([2]; 2.53 µM) | relative viability ([3]; 0.2 µM) | relative viability ([3]; 0.6325 µM) | relative viability ([3]; 2 µM) | relative viability ([3]; 6.325 µM) | relative viability ([3]; 20 µM) | relative viability ([4]; 0.01 µM) | relative viability ([4]; 0.03162 µM) | relative viability ([4]; 0.1 µM) | relative viability ([4]; 0.3162 µM) | relative viability ([4]; 1 µM) | relative viability ([5]; 0.08 µM) | relative viability ([5]; 0.253 µM) | relative viability ([5]; 0.8 µM) | relative viability ([5]; 2.53 µM) | relative viability ([5]; 8 µM)
1 | SK-LU-1 | 1.05 | 1.13 | 0.92 | 1.07 | 1.04 | 1.01 | 1.04 | 1.02 | 1.08 | 1.16 | 1.06 | 0.801 | 1.13 | 0.837 | 1.05 | 0.991 | 1.24 | 1.27 | 0.952 | 1.14 | 1.14 | 1.3 | 0.97 | 1.13
2 | NCI-H520 | 1.08 | 1.06 | 0.98 | 1.02 | 0.955 | 1.14 | 0.924 | 0.801 | 1.15 | 1.09 | 0.722 | 0.678 | 0.817 | 0.163 | 0.962 | 1 | 0.965 | 0.763 | 0.306 | 0.95 | 1.2 | 1.12 | 0.906 | 0.997
3 | HARA | 0.859 | 0.893 | 0.958 | 0.981 | 0.865 | 1.04 | 0.86 | 0.951 | 1 | 1.04 | 0.796 | – | 0.977 | 0.997 | 1.14 | 1.06 | 1.04 | 0.993 | 0.636 | 0.903 | 1.12 | 0.94 | 0.767 | 0.843
